From article PMC6150245 (Molecules : A Journal of Synthetic Chemistry and Natural …, 2017) come the findings set out here.

≈ marks a conversion by molar mass, not a printed value. Entries after “also recorded” stand apart in the source; their conditions may differ. Read-outs that look alike come from different tables or passages of the source. Where only a bound is given, the exact number is not on record here.

Data set [1] has as its system E. coli ATCC25922. In words: MIC, microdilution in MH broth (initial screening). Type of data set: cell-based, Escherichia coli. Conditions: 24 h, 37 °C, resazurin, triplicate. On the procedure:
(§1) The minimum inhibitory concentrations (MIC) were determined following the Clinical and Laboratory Standards Institute (CLSI) recommendations. Antibacterial and antifungal activity tests were performed using the microdilution method. For initial screening, peptides were tested against C. albicans ATCC18804, E. coli ATCC25922, and S. aureus ATCC25923. Briefly, bacterial cells in MH broth (80 μL aliquots containing 1.5 × 10^7 CFU) were incubated with synthetic peptides (serial dilution from 512 to 1 μM) dissolved in Milli-Q water. After incubation for 24 h at 37 °C, the microtiter plates were analyzed visually by addition of resazurin. For the antifungal assays, the culture medium was RPMI 1640 buffered with L-glutamine (pH 7.2), 0.165 M morpholinepropanesulfonic acid (MOPS), and 2% glucose. Cell suspensions (final concentration of 1 × 10^3–2.5 × 10^3 CFU/mL) were inoculated on a microdilution plate previously prepared with serially diluted synthetic peptides (128–1 μM). The plates were incubated for 48 h at 37 °C. Each assay was performed in triplicates. Additionally, amphotericin B and fluconazole were used as the control drugs. MIC was defined as the lowest concentration of peptide at which no growth was detected.

The test system of data set [2] is S. aureus ATCC25923. The data set is described as follows: MIC, microdilution in MH broth (initial screening). The format is cell-based, Staphylococcus aureus. Conditions: 24 h, 37 °C, resazurin, triplicate. The method, then: as §1
(In general: Dilution methods test growth across graded concentrations, often in twofold steps.)

The test system of data set [3] is C. albicans ATCC18804. The data set is described as follows: Antifungal MIC, microdilution in RPMI 1640. The format is cell-based, Candida albicans. As to conditions: C. albicans ATCC18804, RPMI 1640, 48 h, 37 °C, peptides 128-1 µM, triplicate. The method, then:
as §1

For data set [4], the system named is human red blood cells. The data set is described as follows: Hemolysis assay. Type of data set: cell-based. Conditions: 1% (v/v) human erythrocytes in Tris-saline pH 7.4, 1 h, 37 °C, absorbance 405 nm, triplicate. On the procedure: Peptide hemolysis assays were performed as previously described by Castro et al.. Briefly, freshly prepared human red blood cells (RBCs) were washed three times with 0.01 M Tris-HCl (pH 7.4) containing 0.15 M NaCl (Tris-saline). A suspension of 1% (v/v) erythrocytes was made with packed RBCs resuspended in Tris-saline. Peptides were dissolved in Tris-saline at an initial concentration of […] and serially diluted in the same buffer to determine the concentration that triggered 50% hemolysis (HC50). As the positive control (100% lysis), 1% (v/v) Triton X-100 solution was used. After 1 h of incubation at 37 °C, the samples were centrifuged at 3000× g for 5 min. Then, 100 µL aliquots of the supernatant were transferred to 96-well microplates, and the absorbance was determined at 405 nm. The assay was performed in triplicates.

In data set [5] the test system is S. epidermidis ATCC35984. The format is cell-based, Staphylococcus epidermidis. On the procedure: (§2) After confirming antibacterial activity, the peptides were tested against gram-positive and gram-negative multidrug-resistant bacteria, including strains of clinical origin. The peptides, p-BthTX-I, des-Lys^12/(p-BthTX-I)2, and Lys^13-(p-BthTX-I)2 were serially diluted (512–1 μM) in cation-adjusted BBL MH II broth (CAMHB; Becton, Dickson and Co., Sparks, MD, USA) as described by CLSI. Bacteria at 5.0 × 10^5 CFU/mL were added to the media and incubated for 24 h at 37 °C. […] Assays were performed in duplicates, and sterile broth was used as the negative control. To determine the minimal bactericidal concentration (MBC), 100 µL from each well of the MIC assay plates that inhibited bacterial growth were sub-cultured onto MH agar (MHA) plates. […] If the ratio of MBC/MIC was >4, the activity of the peptide was considered bacteriostatic, as described previously.

Data set [6] concerns S. aureus ATCC25923. Type of data set: cell-based, Staphylococcus aureus. Conditions: S. aureus ATCC25923, CAMHB, 24 h, 37 °C, duplicate. The method, then: as §2
The test system of data set [7] is S. aureus SA16. The format is cell-based, Staphylococcus aureus. Conditions: S. aureus SA16 (MRSA). The method, then:
as §2

Data set [8] has as its system S. aureus SA33. The format is cell-based, Staphylococcus aureus. As to conditions: S. aureus SA33, sub-culture on MH agar, 99.9% death. On the procedure: as §2
In data set [9] the test system is S. aureus SA88. The format is cell-based, Staphylococcus aureus. On the procedure: as §2
Data set [10] concerns S. aureus SA90. The format is cell-based, Staphylococcus aureus. Conditions: S. aureus SA90, sub-culture on MH agar, 99.9% death. The method, then: as §2
Data set [11] relates to E. faecium HSJRP8. The format is cell-based, Enterococcus faecium. The method, then:
as §2

Data set [12] relates to E. faecium VRE16. The format is cell-based, Enterococcus faecium. The method, then:
as §2

Data set [13] deals with K. pneumoniae ATCC700603. The format is cell-based, Klebsiella pneumoniae. As to conditions: K. pneumoniae ATCC700603 (SHV-18), CAMHB, 24 h, 37 °C. The method, then: as §2
Data set [14] has as its system K. pneumoniae ATCCBAA1705. Type of data set: cell-based, Klebsiella pneumoniae. Conditions: K. pneumoniae ATCCBAA1705 (KPC), CAMHB, 24 h, 37 °C, duplicate. The method, then:
as §2

Data set [15] deals with K. pneumoniae NDM-1. Type of data set: cell-based, Klebsiella pneumoniae. As to conditions: K. pneumoniae NDM-1, sub-culture on MH agar, 99.9% death. On the procedure: as §2
Data set [16] has as its system E. coli ATCC35218. Type of data set: cell-based, Escherichia coli. On the procedure:
as §2

The subject of data set [17] is E. coli CA4. Type of data set: cell-based, Escherichia coli. Conditions: E. coli CA4 (commensal), CAMHB, 24 h, 37 °C, duplicate. The method, then: as §2
A short description of data set [18]: Serum stability assay. The format is in vitro ADME. Conditions: 25% human male serum, 37 °C, peptide 100 µM, analytical HPLC (C18) and LC/MS, duplicate. On the procedure:
Crude peptides were purified by semi-preparative HPLC on a Shimadzu system (Tokyo, Japan) using a C18 reversed phase column (10 × 250 mm, Phenomenex, Torrance, CA, USA). Solvent A contained 0.045% trifluoroacetic acid (TFA) in water. Elution was achieved using a linear gradient (5–35%) of solvent B (0.036% TFA in acetonitrile) for 120 min at 5 mL/min. The purity of the peptides was determined by analytical HPLC on a Shimadzu system using a C18 column (4.6 × 150 mm, Phenomenex, Torrance, CA, USA) with a linear gradient of solvent B (5–95%) for 30 min at 1 mL/min. Liquid chromatography-mass spectrometry (LC/MS) was performed using a C18 column (2.0 × 30 mm, Shimadzu) attached to analytical HPLC and an amaZon ion trap mass spectrometer (Bruker Daltonics) using ESI. Peptides were eluted using a linear gradient of solvent B (5–95%) for 15 min at 0.2 mL/min.
Peptide stability assays were performed in diluted serum as previously described with minor modifications. First, 2 mL of 25% human male serum was centrifuged at 3000× g for 10 min; the supernatant was collected and incubated for 15 min at 37 °C. Next, peptides were added to the serum to a final concentration of 100 µM. Then, 200 µL of samples were collected at different time points during the assays, which were performed in duplicate. Analyses were performed by LC/MS and analytical HPLC, as described above.

The nature of data set [19]: 25% human male serum. As to conditions: 37 °C, up to 30 h.

One may read the MIC as the lowest concentration found to suppress growth. Regarding `CC(C)C[C@H](NC(=O)[C@H](Cc1c[nH]cn1)NC(=O)[C@H](Cc1ccc(O)cc1)NC(=O)[C@H](CCCNC(=N)N)NC(=O)[C@H](Cc1ccc(O)cc1)NC(=O)[C@H](CCCCN)NC(=O)[C@@H](N)CCCCN)C(=O)N[C@@H](CCCCN)C(=O)N1CCC[C@H]1C(=O)N[C@@H](Cc1ccccc1)C(=O)N[C@@H](CSSC[C@H](NC(=O)[C@H](Cc1ccccc1)NC(=O)[C@@H]1CCCN1C(=O)[C@H](CCCCN)NC(=O)[C@H](CC(C)C)NC(=O)[C@H](Cc1c[nH]cn1)NC(=O)[C@H](Cc1ccc(O)cc1)NC(=O)[C@H](CCCNC(=N)N)NC(=O)[C@H](Cc1ccc(O)cc1)NC(=O)[C@H](CCCCN)NC(=O)[C@@H](N)CCCCN)C(=O)N[C@@H](CCCCN)C(=O)O)C(=O)N[C@@H](CCCCN)C(=O)O` [des-Lys^13-(p-BthTX-I)2], the results for the MIC in data set [1], in data set [2] and in data set [3] were 32 µM (≈ 103 µg/mL), 128 µM (≈ 412 µg/mL) and above 128 µM, respectively. For the same compound, the “HC50 (peptide concentration that produced 50% hemolysis)” value in [4] was above 128 µM.
As usually defined, the MBC is the smallest concentration meeting the test's criterion for killing. Low values mean greater bactericidal potency, high ones weaker bactericidal potency. Turning to `CC(C)C[C@H](NC(=O)[C@H](Cc1c[nH]cn1)NC(=O)[C@H](Cc1ccc(O)cc1)NC(=O)[C@H](CCCNC(=N)N)NC(=O)[C@H](Cc1ccc(O)cc1)NC(=O)[C@H](CCCCN)NC(=O)[C@@H](N)CCCCN)C(=O)N[C@@H](CCCCN)C(=O)N1CCC[C@H]1C(=O)N[C@@H](Cc1ccccc1)C(=O)N[C@@H](CS)C(=O)N[C@@H](CCCCN)C(=O)N[C@@H](CCCCN)C(=O)O` [p-BthTX-I], the MIC in [5] (S. epidermidis ATCC35984, CAMHB, 24 h, 37 °C, duplicate) is 128 µM (≈ 223 µg/mL); in data set [6], above 512 µM; in [7] (CAMHB, 24 h, 37 °C), 512 µM (≈ 890 µg/mL); in [9] (S. aureus SA88 (MRSA, daptomycin heteroresistant), CAMHB, 24 h, 37 °C, duplicate), 512 µM (≈ 890 µg/mL); in data set [11] (E. faecium HSJRP8 (daptomycin resistant), CAMHB, 24 h, 37 °C, duplicate), 32 µM (≈ 55.7 µg/mL); in [12] (E. faecium VRE16 (vancomycin resistant), CAMHB, 24 h, 37 °C, duplicate), 128 µM (≈ 223 µg/mL). Besides, the MIC in [13] is above 512 µM; in [14], above 512 µM; in data set [16] (E. coli ATCC35218, CAMHB, 24 h, 37 °C, duplicate), 512 µM (≈ 890 µg/mL); in data set [17] it was above 512 µM. Besides, the MBC in [5] (S. epidermidis ATCC35984, sub-culture on MH agar, 99.9% death) is given as 512 µM (≈ 890 µg/mL); in data set [7] (sub-culture on MH agar, 99.9% death), 512 µM (≈ 890 µg/mL); in data set [8] it was above 512 µM; in data set [9] (S. aureus SA88, sub-culture on MH agar, 99.9% death), above 512 µM; in [10], 512 µM (≈ 890 µg/mL); in [11] (E. faecium HSJRP8, sub-culture on MH agar, 99.9% death), above 512 µM. Moreover, the MBC in [12] (E. faecium VRE16, sub-culture on MH agar, 99.9% death) was above 512 µM; in data set [15] it was above 512 µM; in [16] (E. coli ATCC35218, sub-culture on MH agar, 99.9% death), above 512 µM. Moreover, in data set [18], the “Incubation time after which the peptide was completely degraded in human serum” value was determined as 30 min.
Turning to KKYRYHLKPFCKK [(p-BthTX-I)2], in [19], the cleaved bond entry is given as “Lys12-Lys13, major, 30 min; also recorded: Cys11-Lys12, major, 30 min” and the fragment found result is given as “(p-BthTX-I)2 minus one Lys residue, first_seen, 5 min; also recorded: (p-BthTX-I)2 minus two Lys residues, major, 5 min; also recorded: (p-BthTX-I)2 minus three Lys residues, 20 min”.
